Laboratory results from patent publication US11224609B2, “Mithramycin derivatives having increased selectivity and anti-cancer activity” (University of Kentucky Research Foundation, priority 2017, dated 2022).
Entries after “also recorded” stand apart in the source; their conditions may differ.

Legend:
EWS-FLI1 mRNA = experiment: Relative mRNA expression (qRT-PCR) of EWS-FLI1 in TC-32 cells; format: cell-based; conditions: 6 and 12 h treatments at GI50
Method: TC-32 cells were seeded in 6-well plates at a density of 300,000 cells/well. […] After 6 and 12 h treatments media was removed. Cells were washed with DPBS and 500 μL of 0.05% Trypsin with 0.53 mM EDTA (Corning, Corning, N.Y.) was added. After a 2-3 min incubation, cells detached from the plate and 1 mL of fresh RPMI media was immediately added. Cells were collected in 1.5 mL tubes on ice and centrifuged to a pellet at 1200× g for 5 min. Supernatant was removed and cell pellets were lysed with 600 μL of RLT lysis buffer (Qiagen, Hilden, Germany). Lysates were centrifuged through QIAshredder inserts for complete cell disruption (Qiagen, Hilden, Germany). RNeasy mini spin columns were used to isolate pure RNA (Qiagen, Hilden, Germany). RNA concentrations were measured using NanoDrop 2000 Spectrometer (Thermo Fisher Scientific, Waltham, Mass.) and a 100 ng/μL stock solution was prepared. RNA (1 μg) was used to prepare cDNA with a MultiScribe reverse transcriptase (Thermo Fisher Scientific, Waltham, Mass.). qRT-PCR reactions were conducted using Maxima SYBR green Taq DNA Polymerase (Thermo Fisher Scientific, Waltham, Mass.). EpMotion5070 (Eppendorf, Hamburg, Germany) robot was used to mix reactions in 384 well plates and thermocycling was completed on a QuantStudio 7 Flex (Thermo Fisher Scientific, Waltham, Mass.). […]

CMV promoter = CMV promoter luciferase reporter assay in stably transfected TC-32 cells (non-specific control); format: cell-based; conditions: 12 h, treated up to 10 μM
Description: Full-length NR0B1 promoter sequence was PCR amplified using Q5 high-fidelity DNA polymerase (New England Biolabs, Ipswich, Mass.) from genomic DNA of TC-32 cells and cloned into the pGLUC-Basic 2 vector (New England Biolabs, Ipswich, Mass.). XhoI and KpnI restriction sites were incorporated into the primers. After restriction enzyme (New England Biolabs, Ipswich, Mass.) digest and purification by gel electrophoresis, the target amplicon was ligated into the pGLUC-Basic 2 vector using T4 DNA ligase (Thermo Fisher Scientific, Waltham, Mass.). Chemically competent TOP10 E. coli cells were used to propagate vectors under ampicillin selection (100 μg/mL) (Thermo Fisher Scientific, Waltham, Mass.). The resulting vectors were extracted and purified using GeneJET plasmid prep kit (Thermo Fisher Scientific, Waltham, Mass.). The purified vector was transfected into TC-32 cells using lipofectamine 3000 (Thermo Fisher Scientific, Waltham, Mass.) with subsequent G418 selection (1 mg/mL) (VWR, Radnor, Pa.). Separately, TC-32 cells were transfected with pCMV-Red Firefly Vector (Thermo Fisher Scientific, Waltham, Mass.) with subsequent puromycin selection (0.1 mg/mL) (Sigma, St. Louis, Mo.) as a control.
Selected TC-32 cells, expressing either NR0B1 or CMV luciferase reporter vectors, were seeded in clear 96-well plates at a density of 10,000 cells/well. […] After a 12 h treatment, media was removed and cells were washed 3 times with DPBS (Thermo Fisher Scientific, Waltham, Mass.). Cells were directly lysed on a plate shaker for 30 min at room temperature using 100 μL of passive membrane lysis solution. Lysates (80 μL) were transferred to a white luminescence plate. Luciferase substrate, either coelenterazine or D-luciferin (50 μL of 1× solution), for NR0B1 or CMV vectors, respectively, was added in a Glomax 96 microplate luminometer (Promega, Madison, Wis.) and luminescence was immediately measured. Delay before and after injections were set to the default of 0.4 s and a 10 s integration time was used. All reagents used in this assay were from the dual luciferase reporter assay system (Promega, Madison, Wis.). Concurrently, an additional 96 well plate was seeded and treated under the exact same conditions to determine cell viability using resazurin assay. Luminescence results were normalized to cell viability.

[1] = tested on: ES-2 Ewing sarcoma cells (EWS-FLI1 Type 3); experiment: 72 h GI50 assay in ES-2; conditions: read-out: ES-2 EWS-FLI1 Type 3 GI50; 72 h growth inhibition
[2] = tested on: ES-7 Ewing sarcoma cells (EWS-FLI1 Type 4); experiment: 72 h GI50 assay in ES-7; conditions: read-out: ES-7 EWS-FLI1 Type 4 GI50; 72 h growth inhibition
HeLa cells = experiment: 72 h GI50 assay in HeLa; conditions: read-out: HeLa GI50; 72 h growth inhibition
A549 cells = experiment: 72 h GI50 assay in A549; conditions: read-out: A549 GI50; 72 h growth inhibition
[3] = tested on: RD-ES Ewing sarcoma cells (EWS-FLI1 Type 2); experiment: 72 h GI50 assay in RD-ES; conditions: read-out: RD-ES EWS-FLI1 Type 2 GI50; 72 h growth inhibition
[4] = tested on: A-673 Ewing sarcoma cells (EWS-FLI1 Type 1); experiment: 72 h GI50 assay in A-673; conditions: read-out: A-673 EWS-FLI1 Type 1 GI50; 72 h growth inhibition
DU 145 cells = experiment: 72 h GI50 assay in DU 145; conditions: read-out: DU 145 GI50; 72 h growth inhibition
HCT 116 cells = experiment: 72 h GI50 assay in HCT 116; conditions: read-out: HCT 116 GI50; 72 h growth inhibition
DMS 114 cells = experiment: 72 h GI50 assay in DMS 114; conditions: read-out: DMS 114 GI50; 72 h growth inhibition
[5] = tested on: PC-3 (prostate cancer, no ETS translocation) cell line; experiment: 72 h growth inhibition (GI50) assay in PC-3; conditions: read-out: PC-3 Prostate cancer No ETS Translocation GI50; 72 h growth inhibition, PC-3 cells
[6] = tested on: Ewing sarcoma cell lines (TC-32, 5838, RD-ES, TC-71, A-673, ES-2, ES-7, ES-8); experiment: Median GI50 in panel of Ewing sarcoma cell lines; conditions: for Ratio of Median GI50 non-Ewing sarcoma:Ewing sarcoma (Selectivity Index): median GI50 non-Ewing panel over Ewing panel; for GI50: read-out: Median GI50 in Ewing sarcoma cell lines, median over 8 Ewing sarcoma cell lines, 72 h; for Selectivity Index ratio Analogues:MTM (1): selectivity index relative to MTM (1)

Row | Structure (SMILES) | EWS-FLI1 mRNA expression (EWS-FLI1 mRNA) | CMV promoter driven luciferase signal (CMV promoter) | CMV promoter driven luciferase signal (CMV promoter; listed as MTMSA-Phe-Trp (60)) | GI50 [1] [nM] | GI50 [2] [nM] | GI50 (HeLa cells) [nM] | GI50 (A549 cells) [nM] | GI50 [3] [nM] | GI50 [4] [nM] | GI50 (DU 145 cells) [nM] | GI50 (HCT 116 cells) [nM] | GI50 (DMS 114 cells) [nM] | GI50 [5] [nM] | Ratio of Median GI50 non-Ewing sarcoma:Ewing sarcoma (Selectivity Index) [6] | GI50 [6] [nM] | Selectivity Index ratio Analogues:MTM (1) [6] | CMV promoter driven luciferase signal (CMV promoter; listed as MTMSA-Trp-Trp (61))
1 | COC(=O)C(Cc1c[nH]c2ccccc12)NC(=O)C(Cc1ccccc1)NC(=O)C(OC)C1Cc2cc3cc(OC4CC(OC5CC(O)C(O)C(C)O5)C(O)C(C)O4)c(C)c(O)c3c(O)c2C(=O)C1OC1CC(OC2CC(OC3CC(C)(O)C(O)C(C)O3)C(O)C(C)O2)C(O)C(C)O1 (centres unmarked) [Analogue 60, MTMSA-Phe-Trp] | decreased | no effect at all; also recorded: did not decrease | Lack of effect | 78 | 46 | 557 | 2850 | 50 | 168 | 400 | 449 | 1140 | 1130 | 19.1 | 52 | 12.7 | –
2 | COC(=O)C(Cc1c[nH]c2ccccc12)NC(=O)C(Cc1c[nH]c2ccccc12)NC(=O)C(OC)C1Cc2cc3cc(OC4CC(OC5CC(O)C(O)C(C)O5)C(O)C(C)O4)c(C)c(O)c3c(O)c2C(=O)C1OC1CC(OC2CC(OC3CC(C)(O)C(O)C(C)O3)C(O)C(C)O2)C(O)C(C)O1 (centres unmarked) [Analogue 61, MTMSA-Trp-Trp] | decreased | no effect at all; also recorded: did not decrease | – | 123 | 48 | 951 | 1400 | 57 | 364 | 246 | 198 | 1120 | 568 | 15.6 | 55 | 10.4 | Lack of effect
